Laboratory results reported in patent publication US7579322B2, “Compositions and methods for promoting myocardial and peripheral angiogenesis” (Zimmer Orthobiologics, Inc., priority 2001, dated 2009).
Ends that are not written are not given here.

Assays:
dermal fibroblasts = conditions: cited from earlier work
[1] = system: human aortic endothelial cells; assay: In vitro cell proliferation assay (CyQuant); type: cell-based; conditions: for proliferation of human aortic endothelial cells: compared to controls, 48 hours, two different concentrations
Description: The capacity of IGD-motif peptides according to the present invention to promote […] of human aortic endothelial cells was evaluated by conducting in vitro cell proliferation assays for the peptide of SEQ ID NOS 1 and 2, the DIG scramble peptide, and the capped version of the scramble, GGDIGGG (SEQ ID NO:7). Human aortic endothelial cells grown to ˜95% confluency were seeded (5000 cells/well) in growth medium for four hours to allow cells to adhere. The cells were then transferred to the starvation medium described in Example 1 and starved for about 18 hours. The cells were then transferred to starvation medium containing the test peptide, and the cells were allowed to proliferate for an additional 48 hours. The medium was then removed and the wells were washed with PBS. The cells were then subjected to a single freeze-thaw cycle. CyQuant reagent (Molecular Probes, Eugene, Oreg.) was then added to the cells according to the manufacturer's instructions and the cells incubated for 5 minutes in the dark. The intensity of the color—which is directly proportional to the number of cells—is read at an excitation wavelength of 485 nm and the emission wavelength set at 535 nm.

[2] = system: human smooth muscle cells; assay: In vitro cell migration assay (chemotaxis tray), smooth muscle cells; type: cell-based; conditions: compared to controls; 4 hours incubation
Description: (§1) The ability of IGD-motif peptides according to the present invention to promote cell migration of human endothelial and smooth muscle cells, which are processes characteristic of angiogenesis, was evaluated by conducting cell migration assays for the peptides of SEQ ID NOS 1 and 2, and a scramble of the IGD peptide characterized by the DIG sequence. A capped version of the scramble characterized by the GGDIGGG (SEQ ID NO:7) sequence was also tested.
(§2) Chemotaxis trays (Chemo Tx disposable migration chamber, 6 mm diameter, 300 μl/well, 96 wells with 8 μm filter membranes from Neuro Probe, Inc., Gaithersville, Md.) for evaluating cell migration of the peptides were sterilized by placing the trays under UV light overnight. Further operations with the membrane were carried out under aseptic conditions. The filter membranes were loaded with gelatin to provide a suitable environment for the cells testing by soaking in 3% acetic acid overnight and then for 2 hours in 0.1 mg/ml gelatin. They were then rinsed in sterile water and allowed to air dry. Such membranes may be stored at room temperature for up to 1 month.
The cells to be used in the assay (endothelial cells or smooth muscle cells) were starved for 24 hours before use in appropriate culture media containing 0.1% Fetal Bovine Serum (“FBS”) instead of the customary 10% FBS serum, and 1× penicillin-streptomycin antibiotics. The wells of the 96 well chamber of the chemotaxis unit were filled with media containing 0.1% serum alone or 0.1% serum and the test material (control or chemoattractant respectively). […]
After incubation the lid was removed and with the filter still in place the cells on the upper surface of the membrane were gently wiped off and washed by carefully flushing the top surface of the filter with media by holding the plate with filter at a 45° angle over a container. […] The membrane was then allowed to dry and the number of cells that migrated through the filter pores was determined by counting the number in a field under a light microscope.

[3] = system: human aortic endothelial cells; assay: In vitro cell migration assay (chemotaxis tray / modified Boyden chamber), endothelial cells; type: cell-based; conditions: for migration of human aortic endothelial cells: compared to negative control / scramble peptides, 4 hours incubation
Description: as §1, §2
The cells to be used in the assay (endothelial cells or smooth muscle cells) were starved for 24 hours before use in appropriate culture media containing 0.1% Fetal Bovine Serum (“FBS”) instead of the customary 10% FBS serum, and 1× penicillin-streptomycin antibiotics. The wells of the 96 well chamber of the chemotaxis unit were filled with media containing 0.1% serum alone or 0.1% serum and the test material (control or chemoattractant respectively). The filter membrane was positioned over the plate, aligning the holes in the corners of the frame with the four pins on the microplate, and the membrane was snapped into place making sure that the media in the wells touched the membrane completely. Fifty (50) μl of cell suspension in the starvation-media, at a concentration of 4×10^4 viable cells per charge were plated onto each site (over each well). The plate was incubated at 37° C. in an atmosphere of 5% CO2 for 4 hours.
After incubation the lid was removed and with the filter still in place the cells on the upper surface of the membrane were gently wiped off and washed by carefully flushing the top surface of the filter with media by holding the plate with filter at a 45° angle over a container. The cells on the undersurface of the membrane were then fixed in methanol (˜20 minutes) and stain with Diff-Quik Staining Set. The membrane was then allowed to dry and the number of cells that migrated through the filter pores was determined by counting the number in a field under a light microscope.

[4] = system: quail chorioallantoic membrane (CAM); assay: Quail chorioallantoic membrane (CAM) angiogenesis assay; type: in vivo, Japanese quail (cotumix cotumix japonica); conditions: for angiogenesis / increase in blood vessels in quail CAM: 24 hours incubation, compared to controls / scramble peptides
Description: The activity of IGD-motif peptides for inducing migration and proliferation in endothelial or smooth muscle cells in an in vitro quail chorioallantoic membrane (CAM) model was assayed in a similar manner to that described by Parsons-Wingerter et al., Microvascular Research 55:201-214 (1998), the disclosure of which is hereby incorporated herein by reference. Briefly, fertilized Japanese quail eggs (cotumix cotumix japonica) were opened onto petri dishes on day 3 post-incubation. After 7 days of culture, the four IGD-motif peptides tested in Examples 1 and 2 (IGD, GGIGD (residues 1-5 of SEQ ID NO:2), DIG, GGDIGGG (SEQ ID NO: 7)) each dissolved in 1% polyvinyl pyrrolidine prewarmed to 37° C., were distributed evenly onto the surface of a CAM in separate petri dishes. After 24 hours of incubation, the CAM's were fixed, dissected and photographed at 10× magnification to visualize the arterial vascular tree, including endstage vessels. Digital images of triplicate CAM specimens were acquired at 10× magnification in grayscale, binarized to black-and-white, and skeletonized. The vessel branching pattern was analyzed and quantified by the fractal dimension.

rat wound healing model = conditions: under certain conditions; cited from earlier work

## Ile-Gly-Asp (IGD; Cell-attachment-promoting peptide)
Dermal fibroblasts
  cell migration of dermal fibroblasts: can induce cell migration
[1]
  proliferation of human aortic endothelial cells: promoted cell proliferation
[2]
  cell migration of human smooth muscle cells: promoted cell migration
[3]; FIG. 1A
  optimal concentration for migration of human aortic endothelial cells: 100 μm
[3]
  migration of human aortic endothelial cells: increased migratory response
[3]; listed as IGD tripeptide
  migration of human aortic endothelial cells: dose dependent effect
[3]; listed as SEQ ID NO. 1
  migration of human aortic endothelial cells: promoted cell migration
[4]
  angiogenesis / increase in blood vessels in quail CAM: promoted angiogenesis
[4]; listed as uncapped peptide
  angiogenesis / increase in blood vessels in quail CAM: increase in blood vessels

## Ile-Gly-Asp-Ser (IGDS; Cell-attachment-promoting peptide)
Rat wound healing model
  fibroblast migration: increase
  vessel number: increase

## GGDIGGG (not fully specified) [reference compound]
[1]
  proliferation of human aortic endothelial cells: Neither the DIG scramble nor the capped GGDIGGG scramble (SEQ ID NO:7), in contrast, showed cell migration significantly greater than controls
[2]
  cell migration of human smooth muscle cells: Neither the DIG scramble nor the capped GGDIGGG scramble (SEQ ID NO:7) showed cell migration significantly greater than controls
[3]
  migration of human aortic endothelial cells: Neither the DIG scramble nor the capped GGDIGGG scramble (SEQ ID NO:7) showed cell migration significantly greater than controls
[4]
  angiogenesis / increase in blood vessels in quail CAM: neither the DIG scramble nor the GGDIGGG (SEQ ID NO:7) capped scramble promoted angiogenesis significantly better than controls

## GGIGDGG (not fully specified) [Gly-Gly-Ile-Gly-Asp-Gly-Gly]
[1]; FIG. 2
  proliferation response relative to the uncapped tripeptide: nearly twice that of the uncapped tripeptide
[1]
  proliferation of human aortic endothelial cells: promoted cell proliferation
[2]
  cell migration of human smooth muscle cells: promoted cell migration
[3]; at a 10-fold lower concentration, FIG. 1A
  migration of human aortic endothelial cells compared to the uncapped peptide: better migration compared to the uncapped peptide
[3]
  migration of human aortic endothelial cells: increased migratory response
[3]; listed as SEQ ID NO. 2
  migration of human aortic endothelial cells: promoted cell migration
[4]
  angiogenesis / increase in blood vessels in quail CAM: promoted angiogenesis
[4]; listed as capped peptide
  angiogenesis / increase in blood vessels in quail CAM: increase in blood vessels
[4]; at equivalent concentrations, FIG. 3A
  blood vessel increase in quail CAM compared to the uncapped peptide: better than the uncapped peptide
